Results: US20130310344A1, “N-ACYLSULFONAMIDE APOPTOSIS PROMOTERS” (ASTRAZENECA AB, priority 2010, published 2013)
Where a name gives a salt, the structure may show the parent alone.

Experiments:
[1] = biological target: T1, Bcl-2 (Homo sapiens, UniProt P10415); test: Bcl-2 FP assay (competitive fluorescence polarization binding assay, FITC-Bim BH-3 peptide tracer); details: c-terminal 6×HIS tagged Bcl-2 (aa 1-204), 1.3 nM; 2 nM FITC-Bim peptide tracer
T1 construct: a c-terminal 6×HIS tagged Bcl-2 (aa 1-204); 6xHis (C)
Text: (§1) Bcl-xL and Bcl-2 FP binding affinity of compound(s) of Formulae (I), (I-a), (I-b), (I-c), (I-d) and/or (I-e) may be determined using a variety of known methods. One such assay is a sensitive and quantitative in vitro binding assay using fluorescence polarization (“FP”) described by Wang, J.-L.; Zhang, Z-J.; Choksi, S.; Sjam. S.; Lu, Z.; Croce, C. M.; Alnemri, E. S.; Komgold, R.; Huang, Z. Cell permeable Bcl-2 binding peptides: a chemical approach to apoptosis induction in tumor cells. Cancer Res. 2000, 60, 1498-1502).
(§2) Additionally, the binding affinity of compound(s) of Formulae (I), (I-a), (I-b), (I-c), (I-d) and/or (I-e) to Bcl-2 protein in vitro was determined by a competitive binding assay based on fluorescence polarization. For example, fluorescence polarization (“FP”) assays may be developed using a c-terminal 6×HIS tagged Bcl-2 (aa 1-204) and a C-terminal 6×HIS tagged Bcl-XL (aa 1-209). […] Dilutions of either Bcl-2 (1.3 nM) or Bcl-XL (0.8 nM) may be added to serial dilutions of antagonist and incubated for one hour prior to the addition of 2 nM of fluorescent peptide tracer (Anaspec, Fremont, Calif.) in the assay buffer. Final assay buffer conditions may be 20 mM HEPES, pH 7.5, 1 mM DTT, 0.005% Tween-20 and 50 mM NaCl. Samples may be read after 20-minute incubation. Fluorescence polarization values may be plotted as a function of the antagonist concentration.

[2] = biological target: T2, Bcl-XL (Homo sapiens, UniProt Q07817); test: Bcl-XL FP assay (competitive fluorescence polarization binding assay, FITC-Bim BH-3 peptide tracer); details: C-terminal 6×HIS tagged Bcl-XL (aa 1-209), 0.8 nM; 2 nM FITC-Bim peptide tracer
T2 construct: a C-terminal 6×HIS tagged Bcl-XL (aa 1-209); 6xHis (C)
Text: as §1, §2

T2 sequence (Q07817 1-209): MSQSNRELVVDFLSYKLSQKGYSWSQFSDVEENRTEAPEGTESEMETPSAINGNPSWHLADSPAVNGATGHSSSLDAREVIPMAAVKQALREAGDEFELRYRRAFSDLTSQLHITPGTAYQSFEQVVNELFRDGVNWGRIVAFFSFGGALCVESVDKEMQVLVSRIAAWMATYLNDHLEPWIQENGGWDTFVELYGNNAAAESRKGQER
T1 sequence (P10415 1-204): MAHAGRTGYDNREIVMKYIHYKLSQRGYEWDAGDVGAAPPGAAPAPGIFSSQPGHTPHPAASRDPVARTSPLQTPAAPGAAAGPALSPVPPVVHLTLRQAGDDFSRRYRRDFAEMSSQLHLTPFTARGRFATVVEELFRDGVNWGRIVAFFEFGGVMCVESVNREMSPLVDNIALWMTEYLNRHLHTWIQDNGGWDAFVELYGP

SMILES	IC50 [1] [nM]	IC50 [2] [nM]
O=C(NS(=O)(=O)c1ccc(N[C@H](CCN(CCO)CCO)CSc2ccccc2)c(S(=O)(=O)C(F)(F)F)c1)c1ccc(N2CCC([C@@H](O)c3ccccc3-c3ccc(Cl)cc3)CC2)cc1 [Example 5, N-(4-((R)-4-(bis(2-hydroxyethyl)amino)-1-(phenylthio)butan-2-ylamino)-3-(trifluoromethylsulfonyl)phenylsulfonyl)-4-(4-((R)-(4′-chlorobiphenyl-2-yl)(hydroxy)methyl)piperidin-1-yl)benzamide, formic acid salt]	0.8	1
O=C(NS(=O)(=O)c1ccc(N[C@H](CCN(CCOP(=O)(O)O)CCOP(=O)(O)O)CSc2ccccc2)c(S(=O)(=O)C(F)(F)F)c1)c1ccc(N2CCC([C@@H](O)c3ccccc3-c3ccc(Cl)cc3)CC2)cc1 [Example 7, 2,2′-((R)-3-(4-(N-(4-(4-((R)-(4′-chlorobiphenyl-2-yl)(hydroxy)methyl)piperidin-1-yl)benzoyl)sulfamoyl)-2-(trifluoromethylsulfonyl)phenylamino)-4-(phenylthio)butylazanediyl)bis(ethane-2,1-diyl)bis(dihydrogen phosphate), hydrochloride salt]	2	1
CCN(CCOP(=O)(O)O)CC[C@H](CSc1ccccc1)Nc1ccc(S(=O)(=O)NC(=O)c2ccc(N3CCC([C@@H](O)c4ccccc4-c4ccc(Cl)cc4)CC3)cc2)cc1S(=O)(=O)C(F)(F)F [Example 8, 2-(((R)-3-(4-(N-(4-(4-((R)-(4′-chlorobiphenyl-2-yl)(hydroxy)methyl)piperidin-1-yl)benzoyl)sulfamoyl)-2-(trifluoromethylsulfonyl)phenylamino)-4-(phenylthio)butyl)(ethyl)amino)ethyl dihydrogen phosphate, hydrochloride salt]	0.9	1
CN(CCOP(=O)(O)O)CC[C@H](CSc1ccccc1)Nc1ccc(S(=O)(=O)NC(=O)c2ccc(N3CCC([C@@H](O)c4ccccc4-c4ccc(Cl)cc4)CC3)cc2)cc1S(=O)(=O)C(F)(F)F [Example 9, 2-(((R)-3-(4-(N-(4-(4-((R)-(4′-chlorobiphenyl-2-yl)(hydroxy)methyl)piperidin-1-yl)benzoyl)sulfamoyl)-2-(trifluoromethylsulfonyl)phenylamino)-4-(phenylthio)butyl)(methyl)amino)ethyl dihydrogen phosphate, hydrochloride salt]	0.9	1
O=C(NS(=O)(=O)c1ccc(N[C@H](CCN2CCN(CCOP(=O)(O)O)CC2)CSc2ccccc2)c(S(=O)(=O)C(F)(F)F)c1)c1ccc(N2CCC([C@@H](O)c3ccccc3-c3ccc(Cl)cc3)CC2)cc1 [Example 10, 2-(4-((R)-3-(4-(N-(4-(4-((R)-(4′-chlorobiphenyl-2-yl)(hydroxy)methyl)piperidin-1-yl)benzoyl)sulfamoyl)-2-(trifluoromethylsulfonyl)phenylamino)-4-(phenylthio)butyl)piperazin-1-yl)ethyl dihydrogen phosphate]	0.7	1
CN(CCO)CC[C@H](CSc1ccccc1)Nc1ccc(S(=O)(=O)NC(=O)c2ccc(N3CCC([C@@H](N)c4ccccc4-c4ccc(Cl)cc4)CC3)cc2)cc1S(=O)(=O)C(F)(F)F [Example 11, 4-(4-((R)-amino(4′-chlorobiphenyl-2-yl)methyl)piperidin-1-yl)-N-(4-((R)-4-((2-hydroxyethyl)(methyl)amino)-1-(phenylthio)butan-2-ylamino)-3-(trifluoromethylsulfonyl)phenylsulfonyl)benzamide, formic acid salt]	4	3
CCN(CCO)CC[C@H](CSc1ccccc1)Nc1ccc(S(=O)(=O)NC(=O)c2ccc(N3CCC([C@@H](N)c4ccccc4-c4ccc(Cl)cc4)CC3)cc2)cc1S(=O)(=O)C(F)(F)F [Example 12, 4-(4-((R)-amino(4′-chlorobiphenyl-2-yl)methyl)piperidin-1-yl)-N-(4-((R)-4-(ethyl(2-hydroxyethyl)amino)-1-(phenylthio)butan-2-ylamino)-3-(trifluoromethylsulfonyl)phenylsulfonyl)benzamide, formic acid salt]	3	3
N[C@@H](c1ccccc1-c1ccc(Cl)cc1)C1CCN(c2ccc(C(=O)NS(=O)(=O)c3ccc(N[C@H](CCN4CCN(CCO)CC4)CSc4ccccc4)c(S(=O)(=O)C(F)(F)F)c3)cc2)CC1 [Example 13, 4-(4-((R)-amino(4′-chlorobiphenyl-2-yl)methyl)piperidin-1-yl)-N-(4-((R)-4-(4-(2-hydroxyethyl)piperazin-1-yl)-1-(phenylthio)butan-2-ylamino)-3-(trifluoromethylsulfonyl)phenylsulfonyl)benzamide, formic acid salt]	16	15
O=C(NS(=O)(=O)c1ccc(N[C@H](CCN2CCOCC2)CSc2ccccc2)c(S(=O)(=O)C(F)(F)F)c1)c1ccc(N2CCC([C@H](O)c3ccccc3-c3ccc(Cl)cc3)CC2)cc1 [Example 14, 4-(4-((S)-(4′-chlorobiphenyl-2-yl)(hydroxy)methyl)piperidin-1-yl)-N-(4-((R)-4-morpholino-1-(phenylthio)butan-2-ylamino)-3-(trifluoromethylsulfonyl)phenylsulfonyl)benzamide]	253	78
O=C(NS(=O)(=O)c1ccc(N[C@H](CCN2CCOCC2)CSc2ccccc2)c(S(=O)(=O)C(F)(F)F)c1)c1ccc(N2CCC([C@@H](O)c3ccccc3-c3ccc(Cl)cc3)CC2)cc1 [Example 15, 4-(4-((R)-(4′-chlorobiphenyl-2-yl)(hydroxy)methyl)piperidin-1-yl)-N-(4-((R)-4-morpholino-1-(phenylthio)butan-2-ylamino)-3-(trifluoromethylsulfonyl)phenylsulfonyl)benzamide]	3	1
O=C(NS(=O)(=O)c1ccc(N[C@H](CCN2CCOCC2)CSc2ccccc2)c([N+](=O)[O-])c1)c1ccc(N2CCC([C@@H](O)c3ccccc3-c3ccc(Cl)cc3)CC2)cc1 [Example 16, 4-(4-((R)-(4′-chlorobiphenyl-2-yl)(hydroxy)methyl)piperidin-1-yl)-N-(4-((R)-4-morpholino-1-(phenylthio)butan-2-ylamino)-3-nitrophenylsulfonyl)benzamide]	0.8	1
CCN(CC)C[C@H]1COCCN1CC[C@H](CSc1ccccc1)Nc1ccc(S(=O)(=O)NC(=O)c2ccc(N3CCC([C@@H](O)c4ccccc4-c4ccc(Cl)cc4)CC3)cc2)cc1S(=O)(=O)C(F)(F)F [Example 20, 4-(4-((R)-(4′-chlorobiphenyl-2-yl)(hydroxy)methyl)piperidin-1-yl)-N-(4-((R)-4-((S)-3-((diethylamino)methyl)morpholino)-1-(phenylthio)butan-2-ylamino)-3-(trifluoromethylsulfonyl)phenylsulfonyl)benzamide]	0.3	1
CCN(CC)C[C@@H]1COCCN1CC[C@H](CSc1ccccc1)Nc1ccc(S(=O)(=O)NC(=O)c2ccc(N3CCC([C@@H](O)c4ccccc4-c4ccc(Cl)cc4)CC3)cc2)cc1S(=O)(=O)C(F)(F)F [Example 21, 4-(4-((R)-(4′-chlorobiphenyl-2-yl)(hydroxy)methyl)piperidin-1-yl)-N-(4-((R)-4-((R)-3-((diethylamino)methyl)morpholino)-1-(phenylthio)butan-2-ylamino)-3-(trifluoromethylsulfonyl)phenylsulfonyl)benzamide]	0.3	0.5
